From PubChem BioAssay AID1963432 (Molecular Pharmacology Branch, DTP, NCI, 2024)
Values belong to the compound of their own block, whether it stands above or below them.

System: SYO-1 complex spheroid growth, percent test/control
Assay: Anticancer human tumor SYO-1 cell line growth inhibition [Asc];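 also: compound exposure lasted 7 days after spheroids grew 3 days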;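 as to viability, T/C: 100% = DMSO vehicle control viability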
Conditions: for IC50: curve of first compound; for viability, T/C: stronger effect = lower value
Outline: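 Tumor cells were grown as complex spheroids with human endothelial cells (HUVEC) and human mesenchymal stem cells as stroma. Agents were tested alone and in combination, in half-log steps down from the clinical Cmax, or from 10 microM where Cmax was unknown.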

[1] = second compound 0.00949 µM, first compound 0.000316 µM
[2] = second compound 0.00949 µM, first compound 0.001 µM
[3] = second compound 0.00949 µM, first compound 0.00316 µM
[4] = second compound 0.00949 µM, first compound 0.01 µM
[5] = second compound 0.00949 µM, first compound 0.0316 µM
[6] = second compound 0.00949 µM, first compound 0.1 µM
[7] = second compound 0.03 µM, first compound 0.000316 µM
[8] = second compound 0.03 µM, first compound 0.001 µM
[9] = second compound 0.03 µM, first compound 0.00316 µM
[10] = second compound 0.03 µM, first compound 0.01 µM
[11] = second compound 0.03 µM, first compound 0.0316 µM
[12] = second compound 0.03 µM, first compound 0.1 µM
[13] = second compound 0.0949 µM, first compound 0.000316 µM
[14] = second compound 0.0949 µM, first compound 0.001 µM
[15] = second compound 0.0949 µM, first compound 0.00316 µM
[16] = second compound 0.0949 µM, first compound 0.01 µM
[17] = second compound 0.0949 µM, first compound 0.0316 µM
[18] = second compound 0.0949 µM, first compound 0.1 µM
[19] = second compound 0.3 µM, first compound 0.000316 µM
[20] = second compound 0.3 µM, first compound 0.001 µM
[21] = second compound 0.3 µM, first compound 0.00316 µM
[22] = second compound 0.3 µM, first compound 0.01 µM
[23] = second compound 0.3 µM, first compound 0.0316 µM
[24] = second compound 0.3 µM, first compound 0.1 µM
[25] = second compound 0.949 µM, first compound 0.000316 µM
[26] = second compound 0.949 µM, first compound 0.001 µM
[27] = second compound 0.949 µM, first compound 0.00316 µM
[28] = second compound 0.949 µM, first compound 0.01 µM
[29] = second compound 0.949 µM, first compound 0.0316 µM
[30] = second compound 0.949 µM, first compound 0.1 µM
[31] = second compound 3 µM, first compound 0.000316 µM
[32] = second compound 3 µM, first compound 0.001 µM
[33] = second compound 3 µM, first compound 0.00316 µM
[34] = second compound 3 µM, first compound 0.01 µM
[35] = second compound 3 µM, first compound 0.0316 µM
[36] = second compound 3 µM, first compound 0.1 µM

IC50 (second compound 0.01 µM): > 100 nM
IC50 (second compound 0.0316 µM): > 100 nM
IC50 (second compound 0.1 µM): > 100 nM
IC50 (second compound 0.316 µM): > 100 nM
IC50 (second compound 1 µM): > 100 nM
Structure (SMILES): NC1CCC(NC2CC2c2ccccc2)CC1 (stereo unspecified) + CNC(C)C(=O)NC1CN(S(=O)(=O)c2cccc(S(=O)(=O)N3CCC4CCC(C(=O)NC(c5ccccc5)c5ccccc5)N4C(=O)C(NC(=O)C(C)NC)C3)c2)CCC2CCC(C(=O)NC(c3ccccc3)c3ccccc3)N2C1=O
viability, T/C (second compound 0.01 µM, first compound 0.000316 µM): 109%
viability, T/C (second compound 0.01 µM, first compound 0.001 µM): 104%
viability, T/C (second compound 0.01 µM, first compound 0.00316 µM): 97.4%
viability, T/C (second compound 0.01 µM, first compound 0.01 µM): 89.4%
viability, T/C (second compound 0.01 µM, first compound 0.0316 µM): 88.1%
viability, T/C (second compound 0.01 µM, first compound 0.1 µM): 86.2%
viability, T/C (second compound 0.0316 µM, first compound 0.000316 µM): 106%
viability, T/C (second compound 0.0316 µM, first compound 0.001 µM): 94%
viability, T/C (second compound 0.0316 µM, first compound 0.00316 µM): 89.7%
viability, T/C (second compound 0.0316 µM, first compound 0.01 µM): 85.6%
viability, T/C (second compound 0.0316 µM, first compound 0.0316 µM): 87.5%
viability, T/C (second compound 0.0316 µM, first compound 0.1 µM): 87.5%
viability, T/C (second compound 0.1 µM, first compound 0.000316 µM): 102%
viability, T/C (second compound 0.1 µM, first compound 0.001 µM): 92.5%
viability, T/C (second compound 0.1 µM, first compound 0.00316 µM): 86.7%
viability, T/C (second compound 0.1 µM, first compound 0.01 µM): 91.3%
viability, T/C (second compound 0.1 µM, first compound 0.0316 µM): 94.8%
viability, T/C (second compound 0.1 µM, first compound 0.1 µM): 91%
viability, T/C (second compound 0.316 µM, first compound 0.000316 µM): 99.8%
viability, T/C (second compound 0.316 µM, first compound 0.001 µM): 97.5%
viability, T/C (second compound 0.316 µM, first compound 0.00316 µM): 90.5%
viability, T/C (second compound 0.316 µM, first compound 0.01 µM): 90.3%
viability, T/C (second compound 0.316 µM, first compound 0.0316 µM): 86.6%
viability, T/C (second compound 0.316 µM, first compound 0.1 µM): 86.2%
viability, T/C (second compound 1 µM, first compound 0.000316 µM): 103%
viability, T/C (second compound 1 µM, first compound 0.001 µM): 99.1%
viability, T/C (second compound 1 µM, first compound 0.00316 µM): 91.2%
viability, T/C (second compound 1 µM, first compound 0.01 µM): 89.6%
viability, T/C (second compound 1 µM, first compound 0.0316 µM): 88.5%
viability, T/C (second compound 1 µM, first compound 0.1 µM): 86.4%

IC50 (second compound 0.00949 µM): > 100 nM
IC50 (second compound 0.03 µM): > 100 nM
IC50 (second compound 0.0949 µM): > 100 nM
IC50 (second compound 0.3 µM): < 0.316 nM
IC50 (second compound 0.949 µM): < 0.316 nM
IC50 (second compound 3 µM): < 0.316 nM
Structure (SMILES): NC1CCC(NC2CC2c2ccccc2)CC1 (stereo unspecified) + CCN1C(C(=O)NC23CCC(C(=O)O)(CC2)CC3)C(c2cccc(Cl)c2F)C2(C(=O)Nc3cc(Cl)ccc32)C12CCCCC2
viability, T/C [1]: 102%
viability, T/C [2]: 96.7%
viability, T/C [3]: 88%
viability, T/C [4]: 88%
viability, T/C [5]: 94.2%
viability, T/C [6]: 91.1%
viability, T/C [7]: 98%
viability, T/C [8]: 96.8%
viability, T/C [9]: 88.9%
viability, T/C [10]: 84.6%
viability, T/C [11]: 85.9%
viability, T/C [12]: 89.5%
viability, T/C [13]: 84.9%
viability, T/C [14]: 74.4%
viability, T/C [15]: 57.8%
viability, T/C [16]: 53.4%
viability, T/C [17]: 55.2%
viability, T/C [18]: 51.7%
viability, T/C [19]: 18.6%
viability, T/C [20]: 18.2%
viability, T/C [21]: 6.03%
viability, T/C [22]: 8.44%
viability, T/C [23]: 13.7%
viability, T/C [24]: 11.2%
viability, T/C [25]: 1.71%
viability, T/C [26]: 2.22%
viability, T/C [27]: 1.78%
viability, T/C [28]: 1.87%
viability, T/C [29]: 1.95%
viability, T/C [30]: 1.33%
viability, T/C [31]: 1.21%
viability, T/C [32]: 1.53%
viability, T/C [33]: 2.09%
viability, T/C [34]: 1.25%
viability, T/C [35]: 1.49%
viability, T/C [36]: 1.44%

IC50 (second compound 0.00949 µM): 16.8 nM
IC50 (second compound 0.03 µM): 6.16 nM
IC50 (second compound 0.0949 µM): 1.56 nM
IC50 (second compound 0.3 µM): < 0.316 nM
IC50 (second compound 0.949 µM): < 0.316 nM
IC50 (second compound 3 µM): < 0.316 nM
Structure (SMILES): Cn1ncnc1[C@H]1c2n[nH]c(=O)c3cc(F)cc(c23)N[C@@H]1c1ccc(F)cc1 + CCN1C(C(=O)NC23CCC(C(=O)O)(CC2)CC3)C(c2cccc(Cl)c2F)C2(C(=O)Nc3cc(Cl)ccc32)C12CCCCC2
viability, T/C [1]: 112%
viability, T/C [2]: 104%
viability, T/C [3]: 96.2%
viability, T/C [4]: 78.7%
viability, T/C [5]: 14.9%
viability, T/C [6]: 7.79%
viability, T/C [7]: 104%
viability, T/C [8]: 98.2%
viability, T/C [9]: 87.5%
viability, T/C [10]: 22.8%
viability, T/C [11]: 6.44%
viability, T/C [12]: 4.46%
viability, T/C [13]: 90.8%
viability, T/C [14]: 66.6%
viability, T/C [15]: 23.7%
viability, T/C [16]: 7.28%
viability, T/C [17]: 6.03%
viability, T/C [18]: 3.35%
viability, T/C [19]: 15.8%
viability, T/C [20]: 9.59%
viability, T/C [21]: 5.54%
viability, T/C [22]: 4.13%
viability, T/C [23]: 2.99%
viability, T/C [24]: 2.63%
viability, T/C [25]: 3.8%
viability, T/C [26]: 2.11%
viability, T/C [27]: 2.99%
viability, T/C [28]: 1.27%
viability, T/C [29]: 1.77%
viability, T/C [30]: 1.2%
viability, T/C [31]: 10.9%
viability, T/C [32]: 1.49%
viability, T/C [33]: 2.04%
viability, T/C [34]: 1.73%
viability, T/C [35]: 1.53%
viability, T/C [36]: 1.16%

IC50 (second compound 0.00949 µM): 800 nM
IC50 (second compound 0.03 µM): 540 nM
IC50 (second compound 0.0949 µM): 123 nM
IC50 (second compound 0.3 µM): < 3.16 nM
IC50 (second compound 0.949 µM): < 3.16 nM
IC50 (second compound 3 µM): < 3.16 nM
Structure (SMILES): COc1c(OCCCN2CCOCC2)ccc2c3n(c(=NC(=O)c4cnc(N)nc4)nc12)CCN3 + CCN1C(C(=O)NC23CCC(C(=O)O)(CC2)CC3)C(c2cccc(Cl)c2F)C2(C(=O)Nc3cc(Cl)ccc32)C12CCCCC2
viability, T/C [3]: 110%
viability, T/C [4]: 109%
viability, T/C [5]: 101%
viability, T/C [6]: 85.2%
viability, T/C (second compound 0.00949 µM, first compound 0.316 µM): 75.4%
viability, T/C (second compound 0.00949 µM, first compound 1 µM): 43.4%
viability, T/C [9]: 103%
viability, T/C [10]: 103%
viability, T/C [11]: 96.9%
viability, T/C [12]: 80.8%
viability, T/C (second compound 0.03 µM, first compound 0.316 µM): 69.3%
viability, T/C (second compound 0.03 µM, first compound 1 µM): 30.6%
viability, T/C [15]: 85.8%
viability, T/C [16]: 86.3%
viability, T/C [17]: 77.2%
viability, T/C [18]: 52.1%
viability, T/C (second compound 0.0949 µM, first compound 0.316 µM): 32.2%
viability, T/C (second compound 0.0949 µM, first compound 1 µM): 16%
viability, T/C [21]: 20.3%
viability, T/C [22]: 23.4%
viability, T/C [23]: 19.3%
viability, T/C [24]: 16.3%
viability, T/C (second compound 0.3 µM, first compound 0.316 µM): 12%
viability, T/C (second compound 0.3 µM, first compound 1 µM): 2.7%
viability, T/C [27]: 2.01%
viability, T/C [28]: 3.89%
viability, T/C [29]: 3.28%
viability, T/C [30]: 2.38%
viability, T/C (second compound 0.949 µM, first compound 0.316 µM): 3.39%
viability, T/C (second compound 0.949 µM, first compound 1 µM): 0.44%
viability, T/C [33]: 1.01%
viability, T/C [34]: 1.03%
viability, T/C [35]: 1.75%
viability, T/C [36]: 0.55%
viability, T/C (second compound 3 µM, first compound 0.316 µM): 0.57%
viability, T/C (second compound 3 µM, first compound 1 µM): 0.45%
